The text below walks through data of PubChem BioAssay (NCI).

Among the test systems are UACC-257 melanoma; OVCAR-8 ovarian; MOLT-4 leukemia; HOP-62 NSCLC; SK-MEL-2 melanoma; HOP-92 NSCLC; UACC-62 melanoma; NCI/ADR-RES ovarian; SK-MEL-5 melanoma; SN12C renal; SK-OV-3 ovarian; SR leukemia.
Holding throughout (assay): NCI-60 cell line screen, 48 h

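Protocol summary: plate cells (96-well), add compound at 5 concentrations, incubate 48 h, interpolate endpoints linearly. TGI is the concentration that stops growth completely.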 Where a SMILES comes first, the peptide text is derived from it. The star is where a group is joined. Boc = CC(C)(C)OC(=O)*

As to `COc1ccccc1-c1n[nH]c(-c2ccccc2O)n1`, the TGI in the assay on UACC-257 melanoma, with OVCAR-8 ovarian, with MOLT-4 leukemia, with HOP-62 NSCLC, in the assay with SK-MEL-2 melanoma and with HOP-92 NSCLC was more than 100 µM in each case. Also, the TGI in the assay with UACC-62 melanoma, in the assay on NCI/ADR-RES ovarian, in the assay with SK-MEL-5 melanoma, in the assay with SN12C renal and in the assay with SK-OV-3 ovarian was more than 100 µM each time.

On to `[N-]=[N+]=NC1(c2ccccc2)C(=O)c2cccc3c4ccccc4n(c23)C1=O` (stereo unspecified), for which the TGI in the assay with UACC-257 melanoma, with OVCAR-8 ovarian, in the assay with MOLT-4 leukemia, in the assay with HOP-62 NSCLC, in the assay on SK-MEL-2 melanoma and in the assay on UACC-62 melanoma was more than 100 µM each time. Moreover, the TGI in the assay with NCI/ADR-RES ovarian, in the assay with SK-MEL-5 melanoma, in the assay on SN12C renal and in the assay with SK-OV-3 ovarian was more than 100 µM throughout.

Turning to `CC12CC(=O)OC(Cc3ccccc31)O2` (stereo unspecified), the TGI with UACC-257 melanoma, in the assay with OVCAR-8 ovarian, in the assay on MOLT-4 leukemia, with HOP-62 NSCLC, with SK-MEL-2 melanoma and in the assay on HOP-92 NSCLC was more than 100 µM throughout. Moreover, the TGI in the assay on UACC-62 melanoma, in the assay with SR leukemia, with SN12C renal and with SK-OV-3 ovarian was more than 100 µM throughout.

For `COc1nc(N)nc2c1n(C)c[n+]2C`, the TGI in the assay with UACC-257 melanoma, in the assay with OVCAR-8 ovarian, in the assay on MOLT-4 leukemia, in the assay with HOP-62 NSCLC, in the assay with SK-MEL-2 melanoma and with HOP-92 NSCLC was more than 100 µM each time. For the same compound, the TGI with UACC-62 melanoma, with NCI/ADR-RES ovarian, in the assay with SK-MEL-5 melanoma, with SN12C renal and in the assay on SK-OV-3 ovarian was more than 100 µM throughout.

As to `CN1NC2=NCCN=C3NN(C)C(=NCCN=C1S2)S3`, the TGI with UACC-257 melanoma, in the assay with OVCAR-8 ovarian, in the assay with MOLT-4 leukemia, in the assay on HOP-62 NSCLC, in the assay with HOP-92 NSCLC and in the assay on UACC-62 melanoma was more than 100 µM throughout. Moreover, the TGI in the assay on SK-MEL-5 melanoma, with SR leukemia and with SN12C renal was more than 100 µM in each case.

For the compound `CC[N+](C)(C)c1ccc(C(=C2C=CC(=[N+](C)C)C=C2)c2ccc(N(C)C)cc2)cc1`, the TGI with UACC-257 melanoma amounted to 28.6 µM; in the assay with OVCAR-8 ovarian, 64.9 µM; in the assay with MOLT-4 leukemia, 46.1 µM; with HOP-62 NSCLC, 41.2 µM; with SK-MEL-2 melanoma, 56.8 µM; with HOP-92 NSCLC, 54.8 µM. Further, the TGI in the assay with UACC-62 melanoma was 29.7 µM; with SK-MEL-5 melanoma, 26.9 µM; in the assay with SR leukemia it was 35.6 µM; in the assay with SN12C renal, more than 100 µM; in the assay on SK-OV-3 ovarian, 55 µM.

`N#Cc1cccc(Nc2ccccc2SSc2ccccc2Nc2cccc(C#N)c2)c1`: the TGI was more than 21.5 µM with UACC-257 melanoma; more than 21.5 µM in the assay on OVCAR-8 ovarian; 21.4 µM in the assay on MOLT-4 leukemia; more than 21.5 µM in the assay on HOP-62 NSCLC; 19 µM in the assay on HOP-92 NSCLC; more than 21.5 µM with UACC-62 melanoma. The TGI in the assay with NCI/ADR-RES ovarian was 19.7 µM; with SK-MEL-5 melanoma it was 17 µM; in the assay with SN12C renal, more than 21.5 µM; in the assay with SK-OV-3 ovarian, more than 21.5 µM.

Regarding `COC(=O)C(Cc1c[nH]c2ccccc12)NC(=O)C(Cc1c[nH]c2ccccc12)NC(=O)C(Cc1c[nH]c2ccccc12)NC(=O)C(Cc1c[nH]c2ccccc12)NC(=O)C(Cc1c[nH]c2ccccc12)NC(=O)OC(C)(C)C` (stereo unspecified) (Boc-WWWWW-OMe; configuration not given here), the TGI with UACC-257 melanoma, in the assay with OVCAR-8 ovarian, with MOLT-4 leukemia, with HOP-62 NSCLC, with SK-MEL-2 melanoma and with UACC-62 melanoma was more than 100 µM each time. In addition, the TGI in the assay with SK-MEL-5 melanoma was 56.5 µM; in the assay with SR leukemia, more than 100 µM; in the assay with SN12C renal it was more than 100 µM.

Take `Nc1ccc2c(c1)N(C(=O)CCCC(=O)N1CC(CCl)c3ccc(N)cc31)CC2CCl` (stereo unspecified): the TGI is more than 50 µM in the assay on UACC-257 melanoma; more than 11.2 µM in the assay with OVCAR-8 ovarian; more than 50 µM in the assay on MOLT-4 leukemia; 8.94 µM in the assay on HOP-62 NSCLC; 1.43 µM with SK-MEL-2 melanoma; more than 50 µM in the assay with HOP-92 NSCLC. Further, the TGI was 42.7 µM with NCI/ADR-RES ovarian, 0.689 µM in the assay with SK-MEL-5 melanoma, 9.67 µM in the assay on SN12C renal and 48.6 µM in the assay on SK-OV-3 ovarian.

With `CN(C)c1ccc(/C=C(\NC(=O)c2ccccc2)c2nc3ccccc3c(=O)o2)cc1`, the TGI with UACC-257 melanoma, with OVCAR-8 ovarian, with MOLT-4 leukemia, in the assay on HOP-62 NSCLC, in the assay with SK-MEL-2 melanoma and in the assay on HOP-92 NSCLC was more than 100 µM throughout. The TGI in the assay on UACC-62 melanoma, in the assay with NCI/ADR-RES ovarian, in the assay on SK-MEL-5 melanoma, in the assay on SN12C renal and in the assay with SK-OV-3 ovarian was more than 100 µM throughout.

Regarding `CNc1nc2c(C)ccc3nc(N(C)C)nc-3c2n1C`, the TGI with UACC-257 melanoma, with OVCAR-8 ovarian, in the assay on MOLT-4 leukemia, in the assay on HOP-62 NSCLC, in the assay with SK-MEL-2 melanoma and with HOP-92 NSCLC was more than 10 µM each time. The TGI with NCI/ADR-RES ovarian, in the assay with SK-MEL-5 melanoma, with SN12C renal and with SK-OV-3 ovarian was more than 10 µM throughout.

As for `O=c1[nH]nc(Cc2ccccc2)n1N=C1CCCCC1`, the TGI with UACC-257 melanoma, with OVCAR-8 ovarian, in the assay with MOLT-4 leukemia, with HOP-62 NSCLC, in the assay on SK-MEL-2 melanoma and with HOP-92 NSCLC was more than 100 µM in each case. In addition, the TGI with UACC-62 melanoma, in the assay on NCI/ADR-RES ovarian, in the assay on SK-MEL-5 melanoma and in the assay with SN12C renal was more than 100 µM throughout.

Consider `Nc1nc([O-])c([I+]c2ccccc2)c(=O)[nH]1`, for which the TGI in the assay with UACC-257 melanoma, with OVCAR-8 ovarian, in the assay with MOLT-4 leukemia, in the assay on HOP-62 NSCLC, in the assay on HOP-92 NSCLC and in the assay with NCI/ADR-RES ovarian was more than 100 µM each time. The TGI in the assay with SK-MEL-5 melanoma, with SR leukemia and in the assay with SN12C renal was more than 100 µM in each case.
